US8765749B2, “1,6-disubstituted indole compounds as protein kinase inhibitors” (Korea Institute of Science and Technology, priority 2009, dated 2014)

How the values were obtained:
[1] = system: A375 melanoma cells; settings: read-out: proliferation of A375 melanoma cells IC50; cited from earlier work
[2] = molecular target: T1, B-Raf (V600E) (Homo sapiens, UniProt P15056, V600E); assay: Measurement of B-Raf-V600E kinase activity (MEK1 (K97R) phosphorylation, [γ-32P] ATP); type: biochemical; settings: read-out: B-Raf kinase inhibition activity (% inhibition at 1 μM)
T1 construct: purchased Cell Signaling #7663
T1 sequence (P15056 whole entry V600E): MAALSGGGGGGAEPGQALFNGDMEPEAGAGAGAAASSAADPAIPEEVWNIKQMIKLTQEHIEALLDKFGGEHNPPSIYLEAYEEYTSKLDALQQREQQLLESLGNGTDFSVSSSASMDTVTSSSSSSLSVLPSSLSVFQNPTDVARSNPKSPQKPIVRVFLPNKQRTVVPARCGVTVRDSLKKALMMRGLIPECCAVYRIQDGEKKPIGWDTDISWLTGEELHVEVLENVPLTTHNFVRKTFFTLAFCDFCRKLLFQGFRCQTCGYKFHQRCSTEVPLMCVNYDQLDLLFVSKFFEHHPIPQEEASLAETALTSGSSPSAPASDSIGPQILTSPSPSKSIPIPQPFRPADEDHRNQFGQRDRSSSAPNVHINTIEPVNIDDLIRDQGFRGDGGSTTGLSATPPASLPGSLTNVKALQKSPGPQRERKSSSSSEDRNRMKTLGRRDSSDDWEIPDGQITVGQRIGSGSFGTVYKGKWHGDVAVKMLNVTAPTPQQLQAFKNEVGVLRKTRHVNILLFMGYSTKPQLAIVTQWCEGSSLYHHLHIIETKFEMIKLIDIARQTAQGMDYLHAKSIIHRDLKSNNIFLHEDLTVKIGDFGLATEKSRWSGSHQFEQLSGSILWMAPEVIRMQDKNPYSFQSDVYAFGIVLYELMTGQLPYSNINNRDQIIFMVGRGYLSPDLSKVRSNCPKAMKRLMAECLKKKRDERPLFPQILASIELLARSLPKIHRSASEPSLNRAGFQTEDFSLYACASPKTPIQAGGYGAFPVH
Method: (1) Activation of MEK1 (K97R) by B-Raf
Base reaction buffer (20 mM Hepes (pH 7.5), 10 mM MgCl2, 1 mM EGTA, 0.02% Brij35, 0.02 mg/mL BSA, 0.1 mM Na3VO, 2 mM DTT, 1% DMSO) was prepared. B-Raf (V600E) (Cell Signaling #7663) diluted to 30 nM was added at a final concentration of 10 nM, and MEK1 (K97R) (Upstate #14-737) diluted to 3 μM was added at a final concentration of 1 μM. The test compound was prepared at a concentration of 10 mM in dimethylsulfoxide (DMSO) and diluted to various concentrations. The final volume was adjusted to 20 μL and, after completely mixing, the mixture was allowed to react at room temperature for 30 minutes.
(2) Phosphorylation of MEK1 (K97R)
[γ-32P] ATP (100 μCi/container) diluted to 1/10 was added in 10 μL aliquots. After completely mixing, the mixture was allowed to react at room temperature for 2 hours. After placing P81 paper in a scintillation vial, spotting was performed using 30 μL of the reaction mixture. After washing 3 times with 0.75% phosphoric acid for 10 minutes and washing once with acetone for 10 minutes, 5 mL of scintillation cocktail was added to the scintillation vial holding the washed P81 paper. Signals were recorded using a scintillation counter.

[3] = system: A375P cells; assay: Inhibition activity against proliferation of A375P melanoma cells (MTT assay); settings: Homo sapiens, read-out: Inhibition activity against proliferation of A375P cells (GI50, μM)
[4] = system: SK-MEL28 cells; assay: Inhibition activity against proliferation of SK-MEL28 melanoma cells (MTT assay); settings: Homo sapiens, SK-MEL-28, read-out: Inhibition activity against proliferation of SK-MEL28 cells (GI50, μM)
[5] = cited from earlier work

inhibition at 1 µM [2] [%] | GI50 [3] [µM] | GI50 [4] [µM] | Compound | IC50 [1] [µM] | skin toxicity ([5]; 600 mg (twice a day)) | maximum allowed administration dose ([5]; clinical trial phase II, twice a day) [mg]
 |  |  | CCCS(=O)(=O)Nc1ccc(F)c(C(=O)c2c[nH]c3ncc(Cl)cc23)c1F [PLX4720] | 0.5 |  | 
> 50 | < 10 | < 10 | COc1ccccc1NC(=O)Nc1cccc(-c2ccc3ccn(-c4cc(NC(=O)C5CC5)ncn4)c3c2)c1 [Example 26, N-(6-(6-(3-(3-(2-methoxyphenyl)ureido)phenyl)-1H-indol-1-yl)pyrimidin-4-yl)cyclopropanecarboxamide] |  |  | 
> 50 | < 10 | < 10 | CNc1cc(-n2ccc3ccc(-c4cccc(NC(=O)Nc5ccccc5OC)c4)cc32)ncn1 [Example 22, 1-(2-methoxyphenyl)-3-(3-(1-(6-(methylamino)pyrimidin-4-yl)-1H-indol-6-yl)phenyl)urea] |  |  | 
 |  |  | CNC(=O)c1cc(Oc2ccc(NC(=O)Nc3ccc(Cl)c(C(F)(F)F)c3)cc2)ccn1 [sorafenib, Sorafenib] |  | grade 3 skin toxicity | 400
> 50 | < 10 | < 10 | COc1ccccc1NC(=O)Nc1ccc(C)c(-c2ccc3ccn(-c4cc(N)ncn4)c3c2)c1 [Example 21, 1-(3-(1-(6-aminopyrimidin-4-yl)-1H-indol-6-yl)-4-methylphenyl)-3-(2-methoxyphenyl)urea] |  |  | 
